Measurements: patent US8455544B2, “Synthetic triterpenoids and methods of use in the treatment of disease” (Reata Pharmaecuticals, Inc., priority 2008, dated 2013)

Legend:
patients with cancer = experiment: Phase I clinical trial in patients with cancer (solid tumor study): serum creatinine, eGFR; assay type: in vivo, human
Procedure: FIGS. 4A-B—RTA 402 reduces serum creatinine levels and increases the estimated glomerular filtration rate (eGFR) in human patients with cancer. FIG. 4A: Serum creatinine was measured in RTA 402-treated patients enrolled in a Phase I clinical trial for the treatment of cancer. The patients were administered RTA 402 (p.o.) once daily for 21 days at doses ranging from 5 to 1,300 mg/day. The percent reduction of serum creatinine relative to baseline levels is shown for the indicated study days. Significant decreases in serum creatinine levels were observed on Days 15 and 21. FIG. 4B: The estimated glomerular filtration rate (eGFR) was calculated for the patients in FIG. 4A. […] All patients: n=24; patients with baseline ≧1.5: n=5. For FIGS. 4A and 4B, * indicates p≦0.04; † indicates p=0.01, and ‡ indicates p≦0.01. Note: in FIG. 4A, “% Reduction from Baseline” on the vertical axis indicates percent change. For example, a reading of −15 on this axis indicates a 15% reduction in serum creatinine.
FIG. 5—RTA 402 increases GFR in human patients with cancer. Estimated glomerular filtration rate (eGFR) was measured in RTA 402-treated patients enrolled in a multi-month clinical trial for the treatment of cancer. All patients (n=11) dosed through six months were included in the analysis. The dosing information for these patients is provided in Example 5, below.
Serum creatinine has also been measured in patients with cancer enrolled in a Phase I clinical trial of RTA 402. These patients received RTA 402 once daily at doses from 5 to 1,300 mg/day for a total of twenty-one days every 28 days. A reduction in serum creatinine by greater than 15% was observed as early as eight days following treatment initiation and persisted through the end of the cycle (FIG. 4A). This reduction was maintained in those patients that received six or more cycles of treatment with RTA 402. […] In these patients, serum creatinine levels decreased progressively throughout the cycle such that the Day 21 levels were approximately 25% lower than baseline levels (FIG. 4A).
Some of these patients were enrolled in the Phase I study, whereas others were enrolled in a study of RTA 402 (in combination with gemcitabine) in patients with pancreatic cancer.

[1] = Serum creatinine in toxicology studies, rats; assay type: in vivo, Sprague-Dawley rats; conditions: oral, once daily, one month (crystalline) or three months (amorphous form)
Procedure: (§1) FIGS. 3a-d—RTA 402 reduces serum creatinine levels in monkeys, dogs, and rats. (FIG. 3a) Cynomolgus monkeys were administered RTA 402 orally at the indicated doses once daily for 28 days. The percent reduction of serum creatinine on Day 28 in RTA 402-treated monkeys relative to vehicle-treated control monkeys is shown. (FIG. 3b) RTA 402 was administered orally to beagle dogs at the indicated doses daily for three months. Control animals received vehicle (sesame oil). The percent change in serum creatinine at the three-month time point relative to baseline is shown. (FIG. 3c) Sprague-Dawley rats were administered RTA 402 orally at the indicated doses once daily for a period of one month. The percent reduction of serum creatinine at study completion in RTA 402-treated rats relative to vehicle-treated control rats is shown. (FIG. 3d) Sprague-Dawley rats were administered the amorphous form of RTA 402 orally at the indicated doses once daily for a period of three months. The percent reduction of serum creatinine at study completion in RTA 402-treated rats relative to vehicle-treated control rats is shown. […] For example, a reading of −15 on this axis indicates a 15% reduction in serum creatinine.
(§2) Serum creatinine has been measured in several animal species treated with RTA 402 in the course of toxicology studies. […]

[2] = Serum creatinine in toxicology study, dogs; assay type: in vivo, beagle dogs; conditions: oral, daily for three months
Procedure: as §1, §2

[3] = tested on: ischemia-reperfusion induced renal damage; experiment: Mouse model of ischemic acute renal failure (ischemia-reperfusion); assay type: in vivo
Procedure: FIGS. 1a-d—RTA 402 reduces renal damage following ischemia-reperfusion. Mice were administered RTA 402 at 2 mg/kg or simply the vehicle (sesame oil) daily by oral gavage beginning on […]. On Day 0, a clamp was placed on the left renal artery for 17 minutes and then removed to induce ischemia-reperfusion. (FIG. 1a) On Day 1, blood was collected from animals that were subjected to clamping and “sham” control animals that underwent surgery without clamping of the renal artery. Blood urea nitrogen (BUN) levels were measured as a surrogate for renal damage. (FIGS. 1b-d) Sections of kidneys from RTA 402-treated or vehicle-treated mice were scored for histological damage (FIGS. 1b & 1d) and inflammation (FIG. 1c). (FIG. 1d) Black arrows (vehicle group) show two of many severely damaged tubules in the outer medulla. Red arrows (RTA 402 group) show two of many undamaged tubules in the outer medulla.
In a mouse model of ischemic acute renal failure, the renal artery is clamped for approximately twenty minutes. After this time, the clamp is removed and the kidney is reperfused with blood. Ischemia-reperfusion results in renal damage and decreased renal function which can be assessed by blood urea nitrogen (BUN) levels, which become elevated following renal damage. As shown in FIGS. 1a-d, surgically-induced ischemia-reperfusion increased BUN levels by approximately 2-fold.

COC(=O)[C@]12CCC(C)(C)C[C@H]1[C@H]1C(=O)C=C3[C@@]4(C)C=C(C#N)C(=O)C(C)(C)[C@@H]4CC[C@@]3(C)[C@]1(C)CC2 [RTA 402, methyl-2-cyano-3,12-dioxooleana-1,9-dien-28-oic acid]
Reduction in serum creatinine (patients with cancer; 5 to 1,300 mg/day once daily for 21 days every 28 days, as early as eight days following treatment initiation): greater than 15% | Serum creatinine lower than baseline levels (patients with cancer; Day 21, subset with baseline serum creatinine of at least 1.5 mg/dl): approximately 25% | Estimated glomerular filtration rate (eGFR) (patients with cancer; Phase I patients, 21 days): significantly improved | eGFR (patients with cancer; Pt 402, dose 5 mg, cycle 1 (28 days each), BL 109.7): 109.7 | eGFR (patients with cancer; Pt 402, dose 5 mg, cycle 2, BL 109.7): 109.7 | eGFR (patients with cancer; Pt 402, dose 5 mg, cycle 3, BL 109.7): 95.7 | eGFR (patients with cancer; Pt 402, dose 5 mg, cycle 4, BL 109.7): 95.7 | eGFR (patients with cancer; Pt 402, dose 5 mg, cycle 5, BL 109.7): 109.7 | eGFR (patients with cancer; Pt 402, dose 5 mg, cycle 6, BL 109.7): 95.7 | eGFR (patients with cancer; Pt 406, dose 80 mg, cycle 1, BL 94.2): 125.9 | eGFR (patients with cancer; Pt 406, dose 80 mg, cycle 2, BL 94.2): 107.9 | eGFR (patients with cancer; Pt 406, dose 80 mg, cycle 3, BL 94.2): 107.9 | eGFR (patients with cancer; Pt 406, dose 80 mg, cycle 4, BL 94.2): 125.9 | eGFR (patients with cancer; Pt 406, dose 80 mg, cycle 5, BL 94.2): 107.9 | eGFR (patients with cancer; Pt 406, dose 80 mg, cycle 6, BL 94.2): 125.9 | eGFR (patients with cancer; Pt 408, dose 150 mg, cycle 1, BL 73.2): 82.1 | eGFR (patients with cancer; Pt 408, dose 150 mg, cycle 2, BL 73.2): 77.4 | eGFR (patients with cancer; Pt 408, dose 150 mg, cycle 3, BL 73.2): 69.4 | eGFR (patients with cancer; Pt 408, dose 150 mg, cycle 4, BL 73.2): 77.4 | eGFR (patients with cancer; Pt 408, dose 150 mg, cycle 5, BL 73.2): 77.4 | eGFR (patients with cancer; Pt 408, dose 150 mg, cycle 6, BL 73.2): 87.4 | eGFR (patients with cancer; Pt 409, dose 150/300 mg, cycle 1, BL 48.4): 62.6 | eGFR (patients with cancer; Pt 409, dose 150/300 mg, cycle 2, BL 48.4): 62.6 | eGFR (patients with cancer; Pt 409, dose 150/300 mg, cycle 3, BL 48.4): 62.6 | eGFR (patients with cancer; Pt 409, dose 150/300 mg, cycle 4, BL 48.4): 57.0 | eGFR (patients with cancer; Pt 409, dose 150/300 mg, cycle 5, BL 48.4): 69.2 | eGFR (patients with cancer; Pt 409, dose 150/300 mg, cycle 6, BL 48.4): 69.2 | eGFR (patients with cancer; Pt 410, dose 300/600 mg, cycle 1, BL 49.9): 69.6 | eGFR (patients with cancer; Pt 410, dose 300/600 mg, cycle 2, BL 49.9): 63.4 | eGFR (patients with cancer; Pt 410, dose 300/600 mg, cycle 3, BL 49.9): 63.4 | eGFR (patients with cancer; Pt 410, dose 300/600 mg, cycle 4, BL 49.9): 69.6 | eGFR (patients with cancer; Pt 410, dose 300/600 mg, cycle 5, BL 49.9): 63.4 | eGFR (patients with cancer; Pt 410, dose 300/600 mg, cycle 6, BL 49.9): 69.6 | eGFR (patients with cancer; Pt 421, dose 1300/900 mg, cycle 1, BL 52.5): 58.6 | eGFR (patients with cancer; Pt 421, dose 1300/900 mg, cycle 2, BL 52.5): 66.2 | eGFR (patients with cancer; Pt 421, dose 1300/900 mg, cycle 3, BL 52.5): 75.8 | eGFR (patients with cancer; Pt 421, dose 1300/900 mg, cycle 5, BL 52.5): 88.4 | eGFR (patients with cancer; Pt 421, dose 1300/900 mg, cycle 6, BL 52.5): 75.8 | eGFR (patients with cancer; Pt 427, dose 1300 mg, cycle 1, BL 70.1): 101.3 | eGFR (patients with cancer; Pt 427, dose 1300 mg, cycle 2, BL 70.1): 78.3 | eGFR (patients with cancer; Pt 427, dose 1300 mg, cycle 3, BL 70.1): 88.4 | eGFR (patients with cancer; Pt 427, dose 1300 mg, cycle 4, BL 70.1): 101.3 | eGFR (patients with cancer; Pt 427, dose 1300 mg, cycle 5, BL 70.1): 101.3 | eGFR (patients with cancer; Pt 427, dose 1300 mg, cycle 6, BL 70.1): 101.3 | % Serum Creatinine Decrease from Baseline (patients with cancer; all patients, n=45, Day 21): −18.3% | % of Patients with Decrease on Day 21 (serum creatinine) (patients with cancer; all patients, n=45, drug for at least 3 weeks): 87% | % of Patients with Decrease on Day 21 (serum creatinine) (patients with cancer; sub-set with elevated baseline serum creatinine levels, n=8): 100% | % Serum Creatinine Decrease from Baseline (patients with cancer; sub-set with elevated baseline serum creatinine levels, n=8, Day 21): −24.5% | Serum creatinine levels relative to control animals [1]: Significant reductions | Serum creatinine levels relative to baseline [2]: Significant reductions | Histological measures of kidney damage and inflammation ([3]; 2 mg/kg orally once daily): significantly improved | BUN levels relative to vehicle-treated animals ([3]; 2 mg/kg orally once daily beginning two days prior to surgery, p<0.01): significantly reduced
